{"source": "patent US11969428B2", "about": "“Methods and pharmaceutical compositions for treating lymphoid malignancy” (priority 2011, dated 2024)", "test_in_all_cases": "Ambit KinomeScan screening", "format_in_all_cases": "binding", "settings_in_all_cases": "CAL-130 10 μM", "key": {"[1]": {"biological_target": "T1, FLT4 (Homo sapiens, UniProt P35916)", "T1 construct": "unspecified tag ('tagged kinases'); purchased Ambit (KinomeScan screening service)", "procedure": "(§1) CAL-130 (10 μM) was evaluated for its ability to prevent tagged kinases from interacting with immobilized “bait” ligand (Karaman et al., 2008). Results are reported as “% of control binding”, where lower numbers indicate stronger interactions with the tagged kinase. Values of >35% are considered “no hits”. PI3Kδ had the lowest percentage of control binding at 0.2% followed by PI3Kγ at 3.2% (See Table 1 below). These values indicate a high probability of a potent interaction. 353 kinases were assessed in the screen (Table 2)."}, "[2]": {"biological_target": "T2, ABL1(E255K) (Homo sapiens, UniProt P00519, E255K)", "T2 construct": "unspecified tag (\"tagged kinases\"); purchased Ambit (KinomeScan screening)", "T2 sequence (P00519 whole entry E255K)": "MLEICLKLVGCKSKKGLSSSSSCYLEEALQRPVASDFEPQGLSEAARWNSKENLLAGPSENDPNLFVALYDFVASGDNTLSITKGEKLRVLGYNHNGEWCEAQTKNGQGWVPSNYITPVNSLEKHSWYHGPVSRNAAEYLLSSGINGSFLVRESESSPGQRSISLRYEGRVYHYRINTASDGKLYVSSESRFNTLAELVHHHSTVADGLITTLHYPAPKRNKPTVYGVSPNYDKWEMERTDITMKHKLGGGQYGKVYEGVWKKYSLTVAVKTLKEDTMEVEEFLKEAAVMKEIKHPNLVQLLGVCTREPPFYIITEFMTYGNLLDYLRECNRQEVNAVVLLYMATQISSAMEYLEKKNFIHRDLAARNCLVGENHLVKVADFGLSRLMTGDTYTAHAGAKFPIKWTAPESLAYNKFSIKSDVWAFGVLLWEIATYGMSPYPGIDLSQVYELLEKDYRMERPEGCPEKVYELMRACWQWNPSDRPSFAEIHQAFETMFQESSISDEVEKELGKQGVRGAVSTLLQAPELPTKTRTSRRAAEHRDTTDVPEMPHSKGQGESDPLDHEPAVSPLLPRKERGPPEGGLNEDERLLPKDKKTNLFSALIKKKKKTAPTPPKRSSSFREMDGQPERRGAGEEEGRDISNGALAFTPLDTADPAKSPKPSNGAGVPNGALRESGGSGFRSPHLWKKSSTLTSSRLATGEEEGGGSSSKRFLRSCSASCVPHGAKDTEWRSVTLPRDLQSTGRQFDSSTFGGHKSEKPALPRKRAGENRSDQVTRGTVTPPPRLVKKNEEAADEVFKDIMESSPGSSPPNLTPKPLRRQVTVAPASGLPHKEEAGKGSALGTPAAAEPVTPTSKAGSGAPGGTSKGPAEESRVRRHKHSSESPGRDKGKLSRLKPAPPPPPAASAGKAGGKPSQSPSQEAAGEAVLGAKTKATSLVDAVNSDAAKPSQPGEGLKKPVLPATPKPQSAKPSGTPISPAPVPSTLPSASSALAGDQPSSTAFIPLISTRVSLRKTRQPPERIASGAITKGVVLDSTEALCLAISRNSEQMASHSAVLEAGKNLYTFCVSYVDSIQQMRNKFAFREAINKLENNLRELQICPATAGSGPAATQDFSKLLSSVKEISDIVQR", "procedure": "as §1"}, "[3]": {"biological_target": "T3, PCTK3 (Homo sapiens, UniProt Q07002)", "T3 construct": "unspecified tag ('tagged kinases'); purchased Ambit (KinomeScan screening)", "procedure": "as §1"}, "[4]": {"biological_target": "T4, PCTK2 (Homo sapiens, UniProt Q00537)", "T4 construct": "unspecified tag ('tagged kinases'); purchased Ambit (KinomeScan screening)", "procedure": "as §1"}, "[5]": {"biological_target": "T5, p38-α (Homo sapiens, UniProt Q16539)", "T5 construct": "purchased Ambit (KinomeScan screening service)", "procedure": "as §1"}, "[6]": {"biological_target": "T6, ABL2 (Homo sapiens, UniProt P42684)", "T6 construct": "unspecified tag (\"tagged kinases\"); purchased Ambit (KinomeScan screening)", "procedure": "as §1"}, "[7]": {"biological_target": "T7, ARK5 (Homo sapiens, UniProt O60285)", "T7 construct": "purchased Ambit (KinomeScan screening service)", "procedure": "as §1"}, "[8]": {"biological_target": "T8, FGFR4 (Homo sapiens, UniProt P22455)", "T8 construct": "unspecified tag; purchased Ambit (KinomeScan screening service)", "procedure": "as §1"}, "[9]": {"biological_target": "T9, NDR1 (Homo sapiens, UniProt Q15208)", "T9 construct": "unspecified tag; purchased Ambit (KinomeScan screening panel)", "procedure": "as §1"}, "[10]": {"biological_target": "T10, ROS1 (Homo sapiens, UniProt P08922)", "T10 construct": "unspecified tag (tagged kinase); purchased Ambit (KinomeScan screening)", "procedure": "as §1"}, "[11]": {"biological_target": "T11, FES (Homo sapiens, UniProt P07332)", "T11 construct": "unspecified tag (\"tagged kinases\"); purchased Ambit (KinomeScan screening service)", "procedure": "as §1"}, "[12]": {"biological_target": "T12, EPHB6 (Homo sapiens, UniProt O15197)", "T12 construct": "purchased Ambit (KinomeScan screening service)", "procedure": "as §1"}, "[13]": {"biological_target": "T13, SNARK (Homo sapiens, UniProt Q9H093)", "T13 construct": "tag, kind not specified; purchased Ambit (KinomeScan screening service)", "procedure": "as §1"}, "[14]": {"biological_target": "T14, KIT(D816V) (Homo sapiens, UniProt P10721, D816V)", "T14 construct": "purchased Ambit (KinomeScan screening)", "T14 sequence (P10721 26-976 D816V)": "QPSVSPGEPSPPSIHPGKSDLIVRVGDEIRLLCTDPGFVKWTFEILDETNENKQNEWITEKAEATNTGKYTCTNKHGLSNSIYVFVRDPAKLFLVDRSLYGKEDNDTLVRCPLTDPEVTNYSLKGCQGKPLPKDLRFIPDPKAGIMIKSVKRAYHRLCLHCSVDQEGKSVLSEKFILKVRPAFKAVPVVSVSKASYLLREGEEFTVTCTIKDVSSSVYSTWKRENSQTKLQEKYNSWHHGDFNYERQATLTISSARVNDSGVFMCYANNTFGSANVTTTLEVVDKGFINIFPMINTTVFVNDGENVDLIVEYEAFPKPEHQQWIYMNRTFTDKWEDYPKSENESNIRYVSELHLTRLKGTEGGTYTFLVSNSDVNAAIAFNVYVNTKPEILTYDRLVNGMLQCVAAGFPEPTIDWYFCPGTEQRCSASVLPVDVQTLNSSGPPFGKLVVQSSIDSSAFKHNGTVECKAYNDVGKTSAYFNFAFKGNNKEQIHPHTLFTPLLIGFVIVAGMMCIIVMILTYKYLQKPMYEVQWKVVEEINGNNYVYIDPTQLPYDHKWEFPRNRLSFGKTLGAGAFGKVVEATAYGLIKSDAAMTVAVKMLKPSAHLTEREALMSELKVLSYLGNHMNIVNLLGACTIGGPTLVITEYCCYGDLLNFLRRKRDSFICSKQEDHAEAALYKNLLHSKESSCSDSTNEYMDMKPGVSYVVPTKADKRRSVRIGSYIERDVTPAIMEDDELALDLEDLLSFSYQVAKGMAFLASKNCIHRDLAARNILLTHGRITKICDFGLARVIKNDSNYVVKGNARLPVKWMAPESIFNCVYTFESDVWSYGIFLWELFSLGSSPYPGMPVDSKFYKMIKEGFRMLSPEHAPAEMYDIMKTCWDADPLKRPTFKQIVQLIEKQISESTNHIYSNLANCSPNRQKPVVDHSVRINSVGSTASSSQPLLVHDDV", "procedure": "as §1"}, "[15]": {"biological_target": "T15, TTK (Homo sapiens, UniProt P33981)", "T15 construct": "tag, kind not specified; purchased Ambit (KinomeScan screening service)", "procedure": "as §1"}, "[16]": {"biological_target": "T16, MEK2 (Homo sapiens, UniProt P36507)", "T16 construct": "purchased Ambit (KinomeScan screening)", "procedure": "as §1"}, "[17]": {"biological_target": "T17, ANKK1 (Homo sapiens, UniProt Q8NFD2)", "T17 construct": "purchased Ambit (KinomeScan screening)", "procedure": "as §1"}, "[18]": {"biological_target": "T18, MEK4 (Homo sapiens, UniProt P45985)", "T18 construct": "purchased Ambit (KinomeScan screening)", "procedure": "as §1"}, "[19]": {"biological_target": "T19, HIPK1 (Homo sapiens, UniProt Q86Z02)", "T19 construct": "unspecified tag ('tagged kinases'); purchased Ambit (KinomeScan screening service)", "procedure": "as §1"}, "[20]": {"biological_target": "T20, FLT1 (Homo sapiens, UniProt P17948)", "T20 construct": "unspecified tag; purchased Ambit (KinomeScan screening service)", "procedure": "as §1"}, "[21]": {"biological_target": "T21, CSNK1G3 (Homo sapiens, UniProt Q9Y6M4)", "T21 construct": "purchased Ambit (KinomeScan screening service)", "procedure": "as §1"}, "[22]": {"biological_target": "T22, DCAMKL3 (Homo sapiens, UniProt Q9C098)", "T22 construct": "unspecified tag (\"tagged kinases\"); purchased Ambit (KinomeScan screening service)", "procedure": "as §1"}, "[23]": {"biological_target": "T23, DLK (Homo sapiens, UniProt Q12852)", "T23 construct": "unspecified tag (\"tagged kinases\"); purchased Ambit (KinomeScan screening service)", "procedure": "as §1"}, "[24]": {"biological_target": "T24, TAOK1 (Homo sapiens, UniProt Q7L7X3)", "T24 construct": "tag (kind not specified); purchased Ambit (KinomeScan screening service)", "procedure": "as §1"}, "[25]": {"biological_target": "T25, TESK1 (Homo sapiens, UniProt Q15569)", "T25 construct": "unspecified tag (tagged kinase); purchased Ambit (KinomeScan screening)", "procedure": "as §1"}, "[26]": {"biological_target": "T26, BRAF(V600E) (Homo sapiens, UniProt P15056, V600E)", "T26 construct": "unspecified tag (\"tagged kinases\"); purchased Ambit (KinomeScan screening)", "T26 sequence (P15056 whole entry V600E)": "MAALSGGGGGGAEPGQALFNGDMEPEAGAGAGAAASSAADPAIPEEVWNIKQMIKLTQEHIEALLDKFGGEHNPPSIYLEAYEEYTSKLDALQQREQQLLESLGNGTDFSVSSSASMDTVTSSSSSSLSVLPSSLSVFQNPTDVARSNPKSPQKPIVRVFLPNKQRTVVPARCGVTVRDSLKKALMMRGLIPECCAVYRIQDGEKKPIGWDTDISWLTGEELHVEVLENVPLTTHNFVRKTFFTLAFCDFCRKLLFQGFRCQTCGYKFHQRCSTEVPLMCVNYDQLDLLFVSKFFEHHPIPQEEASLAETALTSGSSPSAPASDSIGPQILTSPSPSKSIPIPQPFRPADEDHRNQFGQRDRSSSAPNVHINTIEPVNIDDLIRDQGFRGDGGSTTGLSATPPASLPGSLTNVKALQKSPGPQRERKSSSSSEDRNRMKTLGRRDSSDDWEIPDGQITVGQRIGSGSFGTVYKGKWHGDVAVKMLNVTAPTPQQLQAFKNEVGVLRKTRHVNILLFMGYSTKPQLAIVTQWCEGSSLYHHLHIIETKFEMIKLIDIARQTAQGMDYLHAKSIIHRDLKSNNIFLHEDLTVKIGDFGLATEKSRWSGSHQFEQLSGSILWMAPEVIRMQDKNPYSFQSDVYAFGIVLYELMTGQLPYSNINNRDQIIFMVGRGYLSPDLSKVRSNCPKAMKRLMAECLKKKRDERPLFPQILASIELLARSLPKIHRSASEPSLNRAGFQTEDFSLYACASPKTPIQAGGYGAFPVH", "procedure": "as §1"}, "[27]": {"biological_target": "T27, JNK2 (Homo sapiens, UniProt P45984)", "T27 construct": "purchased Ambit (KinomeScan screening)", "procedure": "as §1"}, "[28]": {"biological_target": "T28, MAPKAPK5 (Homo sapiens, UniProt Q8IW41)", "T28 construct": "Ambit (KinomeScan screening)", "procedure": "as §1"}, "[29]": {"biological_target": "T29, STK16 (Homo sapiens, UniProt O75716)", "T29 construct": "purchased Ambit (KinomeScan screening service)", "procedure": "as §1"}, "[30]": {"biological_target": "T30, BMPR2 (Homo sapiens, UniProt Q13873)", "T30 construct": "unspecified tag (\"tagged kinases\"); purchased Ambit (KinomeScan screening)", "T30 sequence (Q13873 27-1038)": "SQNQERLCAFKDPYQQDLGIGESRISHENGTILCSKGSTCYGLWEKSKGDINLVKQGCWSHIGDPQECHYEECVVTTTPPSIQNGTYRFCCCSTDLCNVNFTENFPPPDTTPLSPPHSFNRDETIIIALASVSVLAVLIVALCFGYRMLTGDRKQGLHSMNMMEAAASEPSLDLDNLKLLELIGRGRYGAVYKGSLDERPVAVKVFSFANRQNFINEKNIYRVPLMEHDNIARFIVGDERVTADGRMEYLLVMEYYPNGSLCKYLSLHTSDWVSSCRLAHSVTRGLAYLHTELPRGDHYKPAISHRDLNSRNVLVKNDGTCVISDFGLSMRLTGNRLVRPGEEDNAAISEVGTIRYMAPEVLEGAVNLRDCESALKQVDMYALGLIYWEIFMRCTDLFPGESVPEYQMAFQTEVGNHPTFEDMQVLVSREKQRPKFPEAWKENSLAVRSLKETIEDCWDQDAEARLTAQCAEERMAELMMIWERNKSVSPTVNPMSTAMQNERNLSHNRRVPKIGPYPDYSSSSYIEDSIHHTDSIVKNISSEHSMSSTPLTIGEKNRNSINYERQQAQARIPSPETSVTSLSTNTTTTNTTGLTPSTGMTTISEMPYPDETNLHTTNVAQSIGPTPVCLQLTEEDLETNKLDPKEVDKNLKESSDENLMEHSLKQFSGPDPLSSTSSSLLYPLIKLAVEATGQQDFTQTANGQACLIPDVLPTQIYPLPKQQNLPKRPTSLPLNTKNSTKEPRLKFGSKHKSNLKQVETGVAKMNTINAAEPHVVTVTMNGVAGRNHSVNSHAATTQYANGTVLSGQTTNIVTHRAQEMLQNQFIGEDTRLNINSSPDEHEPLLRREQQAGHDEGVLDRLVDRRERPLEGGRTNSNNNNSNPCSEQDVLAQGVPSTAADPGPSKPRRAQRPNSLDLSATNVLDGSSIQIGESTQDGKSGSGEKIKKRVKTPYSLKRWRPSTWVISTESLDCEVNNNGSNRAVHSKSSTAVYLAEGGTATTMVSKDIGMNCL", "procedure": "as §1"}, "[31]": {"biological_target": "T31, PAK3 (Homo sapiens, UniProt O75914)", "T31 construct": "purchased Ambit (KinomeScan screening service)", "procedure": "as §1"}, "[32]": {"biological_target": "T32, RIOK3 (Homo sapiens, UniProt O14730)", "T32 construct": "unspecified tag (tagged kinase); purchased Ambit (KinomeScan screening)", "procedure": "as §1"}, "[33]": {"biological_target": "T33, EGFR(L858R) (Homo sapiens, UniProt P00533, L858R)", "T33 construct": "unspecified tag; purchased Ambit (KinomeScan screening service)", "procedure": "as §1"}, "[34]": {"biological_target": "T34, RPS6KA1 (Homo sapiens, UniProt Q15418)", "T34 construct": "unspecified tag (tagged kinase); purchased Ambit (KinomeScan screening)", "T34 sequence (Q15418 whole entry)": "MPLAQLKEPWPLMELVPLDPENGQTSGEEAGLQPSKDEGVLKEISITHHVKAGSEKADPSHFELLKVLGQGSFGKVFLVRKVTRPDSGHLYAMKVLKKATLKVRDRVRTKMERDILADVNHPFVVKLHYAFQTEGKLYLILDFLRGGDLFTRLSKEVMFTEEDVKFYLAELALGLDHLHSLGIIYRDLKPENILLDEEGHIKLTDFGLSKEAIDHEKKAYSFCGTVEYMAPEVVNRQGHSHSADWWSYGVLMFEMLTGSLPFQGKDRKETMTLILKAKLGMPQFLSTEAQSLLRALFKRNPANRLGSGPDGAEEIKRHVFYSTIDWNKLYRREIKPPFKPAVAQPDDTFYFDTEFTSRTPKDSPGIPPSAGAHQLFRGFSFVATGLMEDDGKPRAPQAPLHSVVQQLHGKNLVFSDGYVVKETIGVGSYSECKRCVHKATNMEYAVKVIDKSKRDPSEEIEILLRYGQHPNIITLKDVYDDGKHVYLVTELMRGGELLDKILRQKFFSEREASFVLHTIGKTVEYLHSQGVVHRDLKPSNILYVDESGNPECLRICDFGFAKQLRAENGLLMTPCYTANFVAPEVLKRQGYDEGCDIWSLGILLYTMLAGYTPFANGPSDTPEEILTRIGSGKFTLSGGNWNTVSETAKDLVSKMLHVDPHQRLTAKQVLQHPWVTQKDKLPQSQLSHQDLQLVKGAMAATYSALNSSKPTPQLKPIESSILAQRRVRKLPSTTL", "procedure": "as §1"}, "[35]": {"biological_target": "T35, GRK7 (Homo sapiens, UniProt Q8WTQ7)", "T35 construct": "unspecified tag ('tagged kinases'); purchased Ambit (KinomeScan screening service)", "procedure": "as §1"}, "[36]": {"biological_target": "T36, TRKB (Homo sapiens, UniProt Q16620)", "T36 construct": "tag, kind not specified; purchased Ambit (KinomeScan screening service)", "procedure": "as §1"}}}
{"smiles": "Cc1ccccc1-n1c(C(C)Nc2nc(N)nc3nc[nH]c23)nc2cccc(C)c2c1=O", "note": "(stereo not drawn) [CAL-130]", "values": [{"measurement": "Percent of Control Binding", "setting": "[1]", "value": 100, "unit": "%"}, {"measurement": "Percent of Control Binding", "setting": "[2]", "value": 100, "unit": "%"}, {"measurement": "Percent of Control Binding", "setting": "[3]", "value": 100, "unit": "%"}, {"measurement": "Percent of Control Binding", "setting": "[4]", "value": 100, "unit": "%"}, {"measurement": "Percent of Control Binding", "setting": "[5]", "value": 100, "unit": "%"}, {"measurement": "Percent of Control Binding", "setting": "[6]", "value": 100, "unit": "%"}, {"measurement": "Percent of Control Binding", "setting": "[7]", "value": 100, "unit": "%"}, {"measurement": "Percent of Control Binding", "setting": "[8]", "value": 100, "unit": "%"}, {"measurement": "Percent of Control Binding", "setting": "[9]", "value": 100, "unit": "%"}, {"measurement": "Percent of Control Binding", "setting": "[10]", "value": 100, "unit": "%"}, {"measurement": "Percent of Control Binding", "setting": "[11]", "value": 100, "unit": "%"}, {"measurement": "Percent of Control Binding", "setting": "[12]", "value": 100, "unit": "%"}, {"measurement": "Percent of Control Binding", "setting": "[13]", "value": 100, "unit": "%"}, {"measurement": "Percent of Control Binding", "setting": "[14]", "value": 100, "unit": "%"}, {"measurement": "Percent of Control Binding", "setting": "[15]", "value": 11, "unit": "%"}, {"measurement": "Percent of Control Binding", "setting": "[16]", "value": 100, "unit": "%"}, {"measurement": "Percent of Control Binding", "setting": "[17]", "value": 100, "unit": "%"}, {"measurement": "Percent of Control Binding", "setting": "[18]", "value": 100, "unit": "%"}, {"measurement": "Percent of Control Binding", "setting": "[19]", "value": 100, "unit": "%"}, {"measurement": "Percent of Control Binding", "setting": "[20]", "value": 100, "unit": "%"}, {"measurement": "Percent of Control Binding", "setting": "[21]", "value": 100, "unit": "%"}, {"measurement": "Percent of Control Binding", "setting": "[22]", "value": 100, "unit": "%"}, {"measurement": "Percent of Control Binding", "setting": "[23]", "value": 100, "unit": "%"}, {"measurement": "Percent of Control Binding", "setting": "[24]", "value": 100, "unit": "%"}, {"measurement": "Percent of Control Binding", "setting": "[25]", "value": 100, "unit": "%"}, {"measurement": "Percent of Control Binding", "setting": "[26]", "value": 100, "unit": "%"}, {"measurement": "Percent of Control Binding", "setting": "[27]", "value": 100, "unit": "%"}, {"measurement": "Percent of Control Binding", "setting": "[28]", "value": 100, "unit": "%"}, {"measurement": "Percent of Control Binding", "setting": "[29]", "value": 100, "unit": "%"}, {"measurement": "Percent of Control Binding", "setting": "[30]", "value": 100, "unit": "%"}, {"measurement": "Percent of Control Binding", "setting": "[31]", "value": 100, "unit": "%"}, {"measurement": "Percent of Control Binding", "setting": "[32]", "value": 100, "unit": "%"}, {"measurement": "Percent of Control Binding", "setting": "[33]", "value": 100, "unit": "%"}, {"measurement": "Percent of Control Binding", "setting": "[34]", "value": 100, "unit": "%"}, {"measurement": "Percent of Control Binding", "setting": "[35]", "value": 100, "unit": "%"}, {"measurement": "Percent of Control Binding", "setting": "[36]", "value": 100, "unit": "%"}]}
